Reference: patent publication US4130433A, “Industrial biocides” (Abbott Laboratories, priority 1977, dated 1978)

These compounds were tested on A.niger and P.funiculosum (assay: minimum inhibitory concentration (MIC) test, agar plates, fungal growth). Details: agar inoculated with 10,000 units each of A.niger and P.funiculosum; 30° C., 2 weeks; in µg/mL (unit assumed).
Type: cell-based
Description: In a minimum inhibitory concentration (MIC) test, the amount of the test compound needed to prevent fungal growth is established. In this test, agar containing the test compound at a specified concentration is inoculated with 1 ml of a broth containing 10,000 units each of A.niger and P.funiculosum. The agar plates inoculated in this fashion are incubated at 30° C. for 2 weeks and growth of the micro-organisms is determined by visual inspection to establish presence or absence of fungal growth. The compounds made according to Example 1 and their MIC data are shown in the following table, wherein X, Y, Y' and Z are as indicated in Structure I.

| Structure (SMILES) | MIC |
| --- | --- |
| O=C1C(Cl)=C(Cl)C(=O)N1c1ccc(Oc2ccc(Cl)c(Cl)c2)c(Cl)c1 [X=Cl, Y=3-Cl, Y'=3,4-Cl2, Z=O] | > 2000 |
| COC(=O)c1cc(Oc2ccc(Cl)cc2Cl)ccc1N1C(=O)C(Cl)=C(Cl)C1=O [X=Cl, Y=2-CO2 Me, Y'=2,4-Cl2, Z=O] | 1000-1500 |
| O=C1C=CC(=O)N1c1ccc(Sc2ccccc2)cc1 [X=H, Y=H, Y'=H, Z=S] | 100-200 |
| O=C1C=CC(=O)N1c1ccc(Sc2ccc([N+](=O)[O-])cc2)cc1 [X=H, Y=H, Y'=4-NO2, Z=S] | 50-100 |
| O=C1C(Cl)=C(Cl)C(=O)N1c1ccc(Oc2ccc(Cl)cc2Cl)cc1 [X=Cl, Y=H, Y'=2,4-Cl2, Z=O] | 1000-1500 |
| O=C1C(Cl)=C(Cl)C(=O)N1c1ccc(Sc2ccccc2)cc1 [X=Cl, Y=H, Y'=H, Z=S, N-(p-phenylthiophenyl)-2,3-dichloromaleimide] | 500-1000 |
| COC(=O)c1cc(Oc2ccc(Cl)cc2Cl)ccc1N1C(=O)C=CC1=O [X=H, Y=2-CO2 Me, Y'=2,4-Cl2, Z=O] | 10- 50 |
| O=C1C=CC(=O)N1c1ccc(Oc2ccc(Cl)cc2Cl)cc1 [X=H, Y=H, Y'=2,4-Cl2, Z=O] | 50-100 |
| O=C1C(Cl)=C(Cl)C(=O)N1c1ccc(Sc2ccc([N+](=O)[O-])cc2)cc1 [X=Cl, Y=H, Y'=4-NO2, Z=S] | 50-100 |
